Test results published in US10173983B2, “Fungicidal pyridylamidines” (Syngenta Participations AG, priority 2014, dated 2019).

Tests used:
Format in all cases: in vivo
[1] = test system: Puccinia recondita f. sp. tritici; assay: Puccinia recondita f. sp. tritici / wheat / leaf disc preventative (brown rust); settings: foliar, 168 h, wheat leaf segments cv. Kanzler, inoculated 1 day after application, assessed 7-9 days after application, compared to untreated, read-out: disease control
Description: Puccinia recondita f. sp. tritici/Wheat/Leaf Disc Preventative (Brown Rust) Wheat leaf segments cv. Kanzler were placed on agar in multiwell plates (24-well format) and sprayed with the formulated test compound diluted in water. The leaf disks were inoculated with a spore suspension of the fungus 1 day after application. The inoculated leaf segments were incubated at 19° C. and 75% rh under a light regime of 12 h light/12 h darkness in a climate cabinet and the activity of a compound was assessed as percent disease control compared to untreated when an appropriate level of disease damage appears in untreated check leaf segments (7-9 days after application). The following compounds gave at 200 ppm gave at least 80% disease control in this test when compared to untreated control leaf disks under the same conditions, which show extensive disease development: […]

[2] = test system: Puccinia recondita f. sp. tritici; assay: Puccinia recondita f. sp. tritici / wheat / leaf disc curative (brown rust); settings: foliar, wheat leaf segments cv. Kanzler, compound applied 1 day after inoculation, assessed 6-8 days after application, compared to untreated, read-out: disease control
Description: Puccinia recondita f. sp. tritici/Wheat/Leaf Disc Curative (Brown Rust) Wheat leaf segments cv. Kanzler are placed on agar in multiwell plates (24-well format). The leaf segments are inoculated with a spore suspension of the fungus. Plates were stored in darkness at 19° C. and 75% rh. The formulated test compound diluted in water was applied 1 day after inoculation. The leaf segments were incubated at 19° C. and 75% rh under a light regime of 12 h light/12 h darkness in a climate cabinet and the activity of a compound was assessed as percent disease control compared to untreated when an appropriate level of disease damage appears in untreated check leaf segments (6-8 days after application). The following compounds gave at 200 ppm gave at least 80% disease control in this test when compared to untreated control leaf disks under the same conditions, which show extensive disease development: […]

[3] = test system: Blumeria graminis f. Sp. tritici (Erysiphe graminis f. sp. tritici); assay: Blumeria graminis f. sp. tritici / wheat / leaf disc preventative (powdery mildew on wheat); settings: foliar, wheat leaf segments cv. Kanzler, inoculated 1 day after application, assessed 6-8 days after application, compared to untreated, read-out: disease control
Description: Blumeria graminis f. Sp. tritici (Erysiphe graminis f. sp. tritici)/Wheat/Leaf Disc Preventative (Powdery Mildew on Wheat) Wheat leaf segments cv. Kanzler were placed on agar in a multiwell plate (24-well format) and sprayed with the formulated test compound diluted in water. The leaf disks were inoculated by shaking powdery mildew infected plants above the test plates 1 day after application. The inoculated leaf disks were incubated at 20° C. and 60% rh under a light regime of 24 h darkness followed by 12 h light/12 h darkness in a climate chamber and the activity of a compound was assessed as percent disease control compared to untreated when an appropriate level of disease damage appears on untreated check leaf segments (6-8 days after application). The following compounds gave at 200 ppm give at least 80% disease control in this test when compared to untreated control leaf disks under the same conditions, which show extensive disease development: […]

Phakopsora pachyrhizi = Phakopsora pachyrhizi on soybean, preventive treatment; settings: 264 h, 1 day preventive, triazole tolerant soybean rust strain, evaluated 11 days after application, compared to untreated, read-out: disease control
Description: Phakopsora pachyrhizi on Soybean, Preventive Treatment
The compound activity was tested under 1 day preventive conditions. Soybean plants with a fully enfolded first trifoliate leaf were sprayed with a track sprayer and 50 l/ha spray volume with the test compounds, either solo or in tankmix as shown in the table below. 1 day after application leaf discs were cut from the first trifoliate leaf and placed in multiwell plates on water-agar. 5 leaf discs per treatment where infested with spores of a triazole tolerant soybean rust strain. The multiwell plates where sealed and placed in an incubator 48 h in darkness and 12 h light/dark cycle afterwards. Rust infestation on leaf discs was evaluated visually 11 days after application and average activity calculated in relation to disease severity on untreated check leaf discs.
The following compounds gave at 200 ppm gave at least 80% disease control in this test when compared to untreated control leaf disks under the same conditions, which show extensive disease development: […]

Measured: pest or weed control at 200 ppm

CCCOCC(C)Oc1nc(C)c(/N=C/N(C)CC)cc1Br (stereo in doubt) [Q.002, N′-[5-bromo-2-methyl-6-[(1S)-1-methyl-2-propoxy-ethoxy]-3-pyridyl]-N-ethyl-N-methyl-formamidine]
≥ 80%: all assays above

CCCOCC(C)Oc1nc(C)c(/N=C/N(C)CC)cc1C#N (centres unmarked) [Q.007, N′-[5-cyano-2-methyl-6-(1-methyl-2-propoxy-ethoxy)-3-pyridyl]-N-ethyl-N-methyl-formamidine]
≥ 80%: all assays above

CCCOCC(C)Oc1nc(C)c(N=CN(C)CC)cc1C(F)F (centres unmarked) [Q.009, N′-[5-(difluoromethyl)-2-methyl-6-(1-methyl-2-propoxy-ethoxy)-3-pyridyl]-N-ethyl-N-methyl-formamidine]
≥ 80%: all assays above

CCCOCC(C)Oc1nc(C)c(N=CN(C)CC)cc1OC(F)F (centres unmarked) [Q.010, N′-[5-(difluoromethoxy)-2-methyl-6-(1-methyl-2-propoxy-ethoxy)-3-pyridyl]-N-ethyl-N-methyl-formamidine]
≥ 80%: all assays above

CCCOCC(C)Oc1nc(C)c(N=CN(C)CC)cc1C (centres unmarked) [Q.011, N′-[2,5-dimethyl-6-(1-methyl-2-propoxy-ethoxy)-3-pyridyl]-N-ethyl-N-methyl-formamidine]
≥ 80%: all assays above

CCCOCC(C)Oc1ccc(N=CN(C)CC)c(C)n1 (centres unmarked) [Q.012, N-ethyl-N-methyl-N′-[2-methyl-6-(1-methyl-2-propoxy-ethoxy)-3-pyridyl]formamidine]
≥ 80%: [2] | Phakopsora pachyrhizi

CCCOCC(C)Oc1nc(C)c(/N=C/N(C)CC)cc1Br (centres unmarked) [Q.013, N′-[5-bromo-2-methyl-6-(1-methyl-2-propoxy-ethoxy)-3-pyridyl]-N-ethyl-N-methyl-formamidine]
≥ 80%: all assays above

C=CCOCC(C)Oc1nc(C)c(N=CN(C)CC)cc1Cl (centres unmarked) [Q.014, N′-[6-(2-allyloxy-1-methyl-ethoxy)-5-chloro-2-methyl-3-pyridyl]-N-ethyl-N-methyl-formamidine]
≥ 80%: all assays above

CCCOCC(C)Oc1nc(C)c(/N=C/N(C)CC)cc1C(=O)OC (centres unmarked) [Q.019, Methyl 5-[(E)-[ethyl(methyl)amino]methylene-amino]-6-methyl-2-(1-methyl-2-propoxy-ethoxy)pyridine-3-carboxylate]
≥ 80%: [2] | Phakopsora pachyrhizi

CCN(C)C=Nc1cc(C#N)c(OC(C)COc2ccc(Cl)cc2)nc1C (centres unmarked) [Q.021, N′-[6-[2-(4-chlorophenoxy)-1-methyl-ethoxy]-5-cyano-2-methyl-3-pyridyl]-N-ethyl-N-methyl-formamidine]
≥ 80%: [1] | [2] | [3]

CCN(C)C=Nc1cc(C#N)c(OC(C)COc2ccccc2)nc1C (centres unmarked) [Q.022, N′-[5-cyano-2-methyl-6-(1-methyl-2-phenoxy-ethoxy)-3-pyridyl]-N-ethyl-N-methyl-formamidine]
≥ 80%: [1] | [2] | [3]

CCN(C)C=Nc1cc(Br)c(OC(C)COc2cccc(C(F)(F)F)c2)nc1C (centres unmarked) [Q.027, N′-[5-bromo-2-methyl-6-[1-methyl-2-[3-(trifluoromethyl)phenoxy]ethoxy]-3-pyridyl]-N-ethyl-N-methyl-formamidine]
≥ 80%: [2] | [3] | Phakopsora pachyrhizi
